Experimental data: patent publication US6730792B2, “β3 adrenergic agonists” (Eli Lilly and Company, priority 2000, dated 2004)

target: T1, human β3 adrenergic receptor (Homo sapiens, UniProt P13945); assay: whole cell receptor coupled c-AMP assay, human β3 receptor in CHO cells (EC50, Emax relative to isoproterenol); assay type: cell-based; conditions: % intrinsic activity relative to isoproterenol maximal response; average of at least 3 runs; c-AMP in transfected CHO cells
T1 construct: expressed in transfected cells; host or cells: DXB-11 Chinese hamster ovary (CHO) cell line, stably transfected (phd expression vector)
T1 sequence (P13945 whole entry): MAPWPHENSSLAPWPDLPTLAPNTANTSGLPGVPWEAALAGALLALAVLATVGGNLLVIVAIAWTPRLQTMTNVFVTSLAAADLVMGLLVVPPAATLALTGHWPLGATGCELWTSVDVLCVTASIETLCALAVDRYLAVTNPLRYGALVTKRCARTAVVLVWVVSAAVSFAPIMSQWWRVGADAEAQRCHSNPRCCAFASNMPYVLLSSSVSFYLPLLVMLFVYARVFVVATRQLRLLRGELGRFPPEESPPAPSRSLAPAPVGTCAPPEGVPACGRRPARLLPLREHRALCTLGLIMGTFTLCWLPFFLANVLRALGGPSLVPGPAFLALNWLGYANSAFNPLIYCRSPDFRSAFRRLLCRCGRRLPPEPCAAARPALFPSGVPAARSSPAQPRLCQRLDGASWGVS
In short: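 Stably transfected DXB-11 CHO cells (20,000/well) were exposed to compound for 20 min at 37 °C in HBSS/HEPES buffer with 1 mM IBMX, pH 7.4. cAMP was measured by SPA. EC50 came from a four-parameter logistic fit, and Emax is the maximal response as a percentage of isoproterenol's.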

Compound | Emax (%) ± SEM [%]
CC(C)(Cc1ccc(Oc2ncccc2C(N)=O)cc1)NC[C@H](O)COc1ccccc1-c1ccco1.Cl [Example 420] | 78.9 ± 2.3
CC(C)(Cc1ccc(Oc2ccc(C#N)cn2)cc1)NC[C@H](O)COc1ccccc1-c1ccsc1 [Example 378] | 60.2 ± 3.2

same assay, conditions: Emax ± standard error of the mean; average of at least 3 runs except where n = 1; compound tested in the isolated form listed

Compound | Emax (%) ± SEM [%]
CC1(C)COC(c2ccccc2OC[C@@H](O)CNC(C)(C)Cc2ccc(Oc3ncccc3C(N)=O)cc2)=N1.Cl [Example 83] | 83.5 ± 4.4
Cc1nc(-c2ccccc2OC[C@@H](O)CNC(C)(C)Cc2ccc(Oc3ncccc3C(N)=O)cc2)[nH]c1C.Cl.Cl [Example 262] | 63.6 ± 4.3
CC(C)(Cc1ccc(Oc2ccccc2C(N)=O)cc1)NC[C@H](O)COc1ccc(F)cc1-c1cccs1.O=C(O)C(F)(F)F [Example 227] | 51.3 ± 10.8
CC(C)(Cc1ccc(Oc2ccc(S(C)(=O)=O)cc2F)cc1)NC[C@H](O)COc1ccccc1-c1cccs1.O=C(O)C(F)(F)F [Example 223] | 63.7 ± 3.1
CC(C)(Cc1ccc(Oc2ncccc2C(N)=O)cc1)NC[C@H](O)COc1ccccc1-c1ccnc(N)n1 [Example 90] | 31.5 ± 2.8
CC(C)(Cc1ccc(Oc2ccc(Cl)cn2)cc1)NC[C@H](O)COc1ccccc1-c1ccno1.O=C(O)C(F)(F)F [Example 169] | 43.3 ± 6.8
CC(C)(Cc1ccc(Oc2ccc(C(N)=O)cn2)cc1)NC[C@H](O)COc1ccccc1-n1ccc(C=O)c1 [Example 274] | 38.8 ± 1.4
CC(C)(Cc1ccc(Oc2ccccc2C#N)cc1)NC[C@H](O)COc1ccccc1-c1ccns1.O=C(O)C(F)(F)F [Example 213] | 63.0 ± 3.2
CC(C)(Cc1ccc(Oc2ccc(Cl)cn2)cc1)NC[C@H](O)COc1ccccc1-c1cccs1.O=C(O)C(F)(F)F [Example 167] | 57.3 ± 3.5
CC(C)(Cc1ccc(Oc2ccccc2C#N)cc1)NC[C@H](O)COc1ccccc1-c1ccno1.O=C(O)C(F)(F)F [Example 212] | 68.9 ± 3.1
